Calls of active or inactive are those of the source. No cut-off for these calls is given here.

Among the data in ChEMBL document CHEMBL5131496, “Adiponectin-Secretion-Promoting Cyclic Peptide-Polyketide Hybrids from a Halophyte-Associated Fungus, Colletotrichum gloeosporioides JS0417” (J Nat Prod, 2022) are Activity, IC50 and EC50 values, retold here.

Assay [1] concerns Mesenchymal stem cells. Briefly: Induction of adiponectin secretion in human differentiated BMMSC cells assessed as increase in lipid droplet accumulation at 300 uM in the presence of IDX induction medium by Oil red O staining based inverted phase contrast microscope analysis. The class given is functional, cell-based.
Assay [2] concerns HaCaT. Put plainly: Antiinflammatory activity against human HaCaT cells assessed as inhibition of UVB irradiation-induced PGE2 production measured after 2 hrs by ELISA. The class given is functional, cell-based. The note with it: light or radiation study.
Assay [3] concerns Mesenchymal stem cells. Briefly: Induction of adiponectin secretion in human differentiated BMMSC cells measured at 5 day in the presence of IDX induction medium by ELISA. Conditions: for EC50: 120 h. The class given is functional, cell-based.
Assay [4] concerns HaCaT. Put plainly: Antiinflammatory activity against human HaCaT cells assessed as inhibition of UVB irradiation-induced PGE2 production at 10 uM measured after 2 hrs by ELISA. In kind it is functional, cell-based.
For assay [5], the system named is Mesenchymal stem cells. Briefly: Induction of adiponectin secretion in human differentiated BMMSC cells assessed as increase in number of lipid droplet at 30 uM in the presence of IDX induction medium by Oil red O staining based inverted phase contrast microscope analysis. In kind it is functional, cell-based.
Assay [6] has as its system Mesenchymal stem cells. Put plainly: Induction of adiponectin secretion in human differentiated BMMSC cells at 30 uM in the presence of IDX induction medium and measured on 5 day by ELISA relative to control. In kind it is functional.
Assay [7] deals with Mesenchymal stem cells. Briefly: Induction of adiponectin secretion in human differentiated BMMSC cells assessed as increase in size of lipid droplet at 30 uM in the presence of IDX induction medium by Oil red O staining based inverted phase contrast microscope analysis. In kind it is functional, cell-based.

As to `CC(=O)Oc1ccccc1C(=O)O` [ASPIRIN], in the assay with Mesenchymal stem cells [1], the outcome was Active. In addition, the IC50 with HaCaT [2] turned out to be 21.3 µM. Moreover, in the assay on Mesenchymal stem cells [3], the EC50 was over 300 µM.
With `OCCc1c[nH]c2ccccc12` [TRYPTOPHOL], the result with HaCaT [4] and in the assay with Mesenchymal stem cells [1] was Active. Further, in the assay with HaCaT [2], the IC50 amounted to 6.55 µM. Besides, the Activity result with Mesenchymal stem cells [3] (DDE = dose-dependent effect) is “Dde”.
With `COc1ccc(Cl)cc1C(=O)NCCc1ccc(S(=O)(=O)NC(=O)NC2CCCCC2)cc1` [GLYBURIDE], in the assay with Mesenchymal stem cells [3], the EC50 is 2.8 µM.
As to `CC[C@H](C)[C@H]1C(=O)O[C@H]([C@@H](C)CCCC[C@@H](C)O)C[C@@H](O)[C@@H](C)C(=O)N[C@H](Cc2ccccc2)C(=O)N1C`, the outcome in the assay with Mesenchymal stem cells [5] and with Mesenchymal stem cells [7] was Active. The Activity in the assay on Mesenchymal stem cells [6] worked out at 123%. Moreover, the EC50 with Mesenchymal stem cells [3] was determined as 22.7 µM.
For the molecule `CC(C)C[C@H]1NC(=O)[C@H](C)[C@H](O)C[C@@H]([C@@H](C)CCCC[C@@H](C)O)OC(=O)[C@H](CC(C)C)N(C)C1=O`, the result in the assay with Mesenchymal stem cells [5] and with Mesenchymal stem cells [7] was Active. In addition, the Activity in the assay on Mesenchymal stem cells [6] is recorded as 116%. The EC50 in the assay with Mesenchymal stem cells [3] worked out at 29.4 µM.
As to `CCC(C)/C=C/CC(C)/C=C/C(=O)O[C@@H]1[C@@H](O)[C@H](c2c(C)cc(O)cc2O)O[C@H](CO)[C@H]1O` (stereo partly drawn), the Activity in the assay on Mesenchymal stem cells [6] is 78%.
Regarding `Oc1ccc(/C=C/c2cc(O)cc(O)c2)cc1` [RESVERATROL], the IC50 with HaCaT [2] stood at 18.3 µM.

By IC50 is commonly meant the midpoint of a concentration-inhibition curve. What is called EC50 is the concentration at which the effect is half-maximal.
